{"source": "patent US20070016978A1", "about": "“PLANTS HAVING AN ENHANCED RESISTANCE TO NECROTROPHIC PATHOGENS AND METHOD OF MAKING SAME” (priority 2005, published 2007)", "key": {"C. higginsianum [1]": {"tested_on": "C. higginsianum", "experiment": "Growth of C. higginsianum in liquid Fries minimal medium", "type": "cell-based, Colletotrichum higginsianum", "conditions": "G3P added in minimal medium containing a preferred carbon source like sucrose or glycerol; 10 mM G3P, 5 days, 30° C.", "excerpt": "(§1) Several lines of evidence point to G3P levels as being of primary importance. […] Secondly, the gli1 and gly1 plants, with lower levels of G3P, are slightly more susceptible to C. higginsianum."}, "C. higginsianum [2]": {"tested_on": "C. higginsianum", "experiment": "Anthracnose lesion development on Arabidopsis leaves infiltrated with G3P before infection", "type": "in vivo", "conditions": "infiltration of G3P into Arabidopsis leaves prior to infection", "procedure": "as §1\nInoculation with Peronospora parasitica Emco5 is conducted as described in Kachroo et al., 2001. Inoculation with Colletotrichum higginssianum is carried out by spraying the spores at a concentration of […] and spot inoculating at a concentration of 104-105/ml. After inoculation, the plants are covered with a transparent plastic dome and kept in a growth chamber at 22° C., 65% relative humidity and 14 hour photoperiod. Infections are evaluated every day and scored for disease at 4-6 dpi. Inoculation with Pseudomonas syringae is conducted as described in Shah et al., 2001."}, "PDF1.2 gene": {"tested_on": "PDF1.2 gene", "experiment": "PDF1.2 gene expression in response to JA (RNA gel blot)", "type": "in vivo, Arabidopsis", "conditions": "ssi2 fad7 and ssi2 fad7 fad8 plants, 50 μM JA, 48 h post treatment", "procedure": "Small-scale extraction of RNA from one or two leaves is performed in the TRIzol reagent (Invitrogen, Gaithersburg, Md.) following the manufacturer's instructions. Northern blot analysis and synthesis of random primed probes for PR-1, PR-2 and PDF1.2 are carried out as described in Kachroo et al., 2001.\n(§2) JA treatments are carried out as described in Kachroo et al., 2001.\nFIGS. 5(A)-5(I) illustrate glycerol-mediated effects on mutants impaired in various fatty add desaturation (fad) steps and double mutant analysis of ssi2 in different fad backgrounds. […] RNA gel blot analysis was performed on […] of total RNA extracted from 4-week-old soil-grown plants. Ethidium bromide staining of rRNA was used as a loading control. […] The values presented are averages of three replicates. FIG. 5(D) is a plot showing glycerol-induced changes in the 18:1 levels in leaf tissue of four-week-old plants. The ssi2 gly1 and ssi2 act1 plants were used as controls. […] FIG. 5(F) comprises a series of microscopies of trypan blue-stained leaves from ssi2 and various ssi2 fad double- and triple-mutant plants. FIG. 5(G) illustrates expression of the PR-1 and PR-2 genes in wt, ssi2, and various ssi2 fad double and triple mutant plants. […] Samples were harvested 48 h post treatment and analyzed by RNA gel blot analysis performed on 7 μg of total RNA. […]"}, "SA and SAG levels": {"tested_on": "SA and SAG levels", "experiment": "Endogenous SA and SAG levels in leaves of glycerol-treated plants", "type": "in vivo, Arabidopsis", "conditions": "for induction in SA levels / induction in the SAG levels: glycerol- versus water-treated, 50 mM glycerol", "procedure": "(§3) SA and SA glucoside (SAG) are extracted and measured from 0.2-0.3 g of fresh weight leaf tissue, as described in Chandra-Shekara et al., 2004. FA analysis is carried out as described in Dahmer et al., 1989; and He et al., 2002. Lipids are extracted as described in Welti et al., 2002. Lipid profiles and acyl group identification are carried out using an automated electrospray ionization-tandem mass spectrometry facility available at the Kansas Lipidomics Center.\nas §2\n(§4) Ethidium bromide staining of rRNA used as a loading control. FIG. 3(D) is a graph showing growth of P. parasitica biotype Emco5 on various plant genotypes listed at the left. The Landsberg (Ler) ecotype used as the resistant control. […] The shade of each box indicates the severity of infection, based on the number of sporangiophores per cotyledon (see key at the right). FIG. 3(E) is a plot showing glycerol-induced changes in the 18:1 levels in leaf tissue of 4-week-old plants."}, "18:1 levels": {"tested_on": "18:1 levels", "experiment": "Leaf 18:1 content after glycerol application (GC)", "type": "in vivo, Arabidopsis", "conditions": "wt and plants impaired in the SA signaling pathway, three days after glycerol application", "procedure": "as §3, §2, §4"}, "[3]": {"tested_on": "Peronospora parasitica biotype Emco5", "conditions": "glycerol-treated npr1 plants, glycerol 72 h prior to inoculation"}, "PR-1 gene": {"tested_on": "PR-1 gene", "conditions": "exogenous application on wt plants; cited from earlier work"}}}
{"molecule": "O=P(O)(O)OCC(O)CO", "note": "(centres unmarked) [G3P, glycerol-3-phosphate]", "values": [{"measurement": "inhibition of fungal growth", "setting": "C. higginsianum [1]", "result": "~3", "unit": "fold"}, {"measurement": "necrosis triggered by the fungus at the site of entry", "setting": "C. higginsianum [2]", "result": "significantly reduced necrosis"}]}
{"molecule": "CC/C=C\\C[C@H]1C(=O)CC[C@@H]1CC(=O)O", "note": "[JA, jasmonic acid]", "values": [{"measurement": "PDF1.2 expression", "setting": "PDF1.2 gene", "result": "basal level expression of PDF1.2"}]}
{"molecule": "OCC(O)CO", "note": "[glycerol]", "values": [{"measurement": "induction in SA levels", "setting": "SA and SAG levels; Columbia-O (Col-O) plants", "result": 13, "unit": "fold"}, {"measurement": "induction in the SAG levels", "setting": "SA and SAG levels; Columbia-O (Col-O) plants", "result": 10, "unit": "fold"}, {"measurement": "induction in SA levels", "setting": "SA and SAG levels; Nossen (No) plants", "result": 10, "unit": "fold"}, {"measurement": "induction in the SAG levels", "setting": "SA and SAG levels; Nossen (No) plants", "result": 8, "unit": "fold"}, {"measurement": "SA levels upon glycerol treatment, lower than in wt plants", "setting": "SA and SAG levels; fad7 and fad7 fad8 plants versus glycerol-treated wt", "result": 3, "unit": "fold"}, {"measurement": "leaf 18:1 levels", "setting": "18:1 levels", "result": "drastic reduction in their 18:1 levels"}, {"measurement": "reduction in the number of susceptible plants", "setting": "[3]", "result": "about 60%"}, {"measurement": "PR-1 gene expression", "setting": "PR-1 gene", "result": "induction of PR-1 gene expression"}]}
